Results from patent US20080207593A1, “Antihistamine Combination” (Collegium Pharmaceutical, Inc., priority 2007, published 2008).
Where a name gives a salt, the structure may show the parent alone.

How the values were obtained:
[1] = tested on: seasonal allergic rhinitis nasal symptoms (rhinorrhea, nasal itching, sneezing); test: Proof of concept clinical study: Total Nasal Symptom Score (TNSS); type: in vivo, human; conditions: TNSS > 4.7 subgroup
Procedure: An open-label, placebo-controlled parallel-group comparison study was conducted. The protocol used was a 1 week run-in period, with daily placebo (PLC) for all groups, and a second 2 week period for treatment. Study participants were randomized to receive at bedtime (10 pm) during the treatment period, one of the following: PLC only; Immediate Release LOR 10 mg, or Immediate Release CHL 4 mg/Immediate Release LOR 10 mg. Commercially available IR tablets of CHL and LOR were packaged into capsules and used in this study. Participants filled out patient diaries in the morning (8 am) and evening (10 pm, prior to dosing). Reflective and Instantaneous TNSSs were recorded daily. Pittsburgh Sleep Quality Index (PSQI) was scored at the end of the study.
Each symptom (rhinorrhea, nasal itching, sneezing) was scored on the following scale (Max Score=9):
0=absent symptoms (no sign/symptom evident);
1=mild symptoms (signs or symptoms clearly present but with minimal awareness, and easily tolerated);
2=moderate symptoms (definite awareness of signs or symptoms that are bothersome but tolerable); or
3=Severe symptoms (signs or symptoms that are hard to tolerate and cause interference with activities of daily living and/or sleeping).
At each time point (at 8 AM and 10 PM), symptoms were scored for Instantaneous and Reflective scores.
Inclusion criteria: male/female 18-60 years, history of seasonal allergic rhinitis for at least two years, sensitivity to ragweed or locally prevalent allergen, immunotherapy at stable dose, AM Reflective TNSS=3 on at least 5 out of 7 consecutive days during run-in.
Exclusion criteria: subjects with asthma other than mild intermittent asthma, use of antihistamines, other than study medication; use of systemic or topical corticosteroids, use of decongestants or antihistamines within 3 days of Visit 1, nasal cromolyn within 2 weeks of Visit 1, nasal or systemic corticosteroids within 28 days of Visit 1, loratadine within 10 days of Visit 1, history of sleep abnormalities, sinusitis, use of medications causing drowsiness/interfere with sleep, subjects with a known history of alcohol or drug abuse, and other standard exclusions.
2.3 Study Sites. The Study was conducted in Newport News, Va. (20 subjects), Richmond, Va. (20 subjects), New Braunfels, Tex. (25 subjects), San Antonio, Tex. (9 subjects).

allergic rhinitis = conditions: cited from earlier work
[2] = tested on: seasonal allergic rhinitis; conditions: cited from earlier work
[3] = tested on: seasonal allergic rhinitis; conditions: 4 mg three times per day (12 mg daily) for seven days; cited from earlier work
[4] = Baseline (1 week placebo run-in)
[5] = Change from Baseline to End-of-Treatment
[6] = End-of-Treatment, bedtime dosing

CCOC(=O)N1CCC(=C2c3ccc(Cl)cc3CCc3cccnc32)CC1 [Loratadine]
AM TNSS Instantaneous Score, Max [1, 4]: 7.71
AM TNSS Instantaneous Score, Mean [1, 4]: 5.58
AM TNSS Instantaneous Score, Median [1, 4]: 5.43
AM TNSS Instantaneous Score, Min [1, 4]: 3.71
AM TNSS Reflective Score, Max [1, 4]: 8.14
AM TNSS Reflective Score, Mean [1, 4]: 5.91
AM TNSS Reflective Score, Median [1, 4]: 5.07
AM TNSS Reflective Score, Min [1, 4]: 5.00
PM TNSS Instantaneous Score, Max [1, 4]: 8.83
PM TNSS Instantaneous Score, Mean [1, 4]: 5.70
PM TNSS Instantaneous Score, Median [1, 4]: 5.21
PM TNSS Instantaneous Score, Min [1, 4]: 3.86
PM TNSS Reflective Score, Max [1, 4]: 8.50
PM TNSS Reflective Score, Mean [1, 4]: 6.10
PM TNSS Reflective Score, Median [1, 4]: 5.59
PM TNSS Reflective Score, Min [1, 4]: 4.57
PM TNSS Reflective Score, Change, Max [1, 5]: 1.21
PM TNSS Reflective Score, Change, Mean [1, 5]: −0.92
PM TNSS Reflective Score, Change, Median [1, 5]: −0.21
PM TNSS Reflective Score, Change, Min [1, 5]: −3.45
AM TNSS Instantaneous Score, Change, Max ([1]; Change from Baseline to Week 2): 1.21
AM TNSS Instantaneous Score, Change, Mean ([1]; Change from Baseline to Week 2): −0.74
AM TNSS Instantaneous Score, Change, Median ([1]; Change from Baseline to Week 2): −0.83
AM TNSS Instantaneous Score, Change, Min ([1]; Change from Baseline to Week 2): −2.62
AM TNSS Reflective Score, Change, Max ([1]; Change from Baseline to Week 2): 1.29
AM TNSS Reflective Score, Change, Mean ([1]; Change from Baseline to Week 2): −0.82
AM TNSS Reflective Score, Change, Median ([1]; Change from Baseline to Week 2): −0.52
AM TNSS Reflective Score, Change, Min ([1]; Change from Baseline to Week 2): −2.79
PM TNSS Instantaneous Score, Change, Max ([1]; Change from Baseline to Week 2): 1.00
PM TNSS Instantaneous Score, Change, Mean ([1]; Change from Baseline to Week 2): −0.81
PM TNSS Instantaneous Score, Change, Median ([1]; Change from Baseline to Week 2): −0.21
PM TNSS Instantaneous Score, Change, Min ([1]; Change from Baseline to Week 2): −3.45
PM TNSS Reflective Score, Max [1, 6]: 7.71
PM TNSS Reflective Score, Mean [1, 6]: 5.18
PM TNSS Reflective Score, Median [1, 6]: 5.29
PM TNSS Reflective Score, Min [1, 6]: 2.14
AM TNSS Instantaneous Score, Max ([1]; Week 2, bedtime dosing): 7.36
AM TNSS Instantaneous Score, Mean ([1]; Week 2, bedtime dosing): 4.83
AM TNSS Instantaneous Score, Median ([1]; Week 2, bedtime dosing): 5.16
AM TNSS Instantaneous Score, Min ([1]; Week 2, bedtime dosing): 2.14
AM TNSS Reflective Score, Max ([1]; Week 2, bedtime dosing): 7.43
AM TNSS Reflective Score, Mean ([1]; Week 2, bedtime dosing): 5.08
AM TNSS Reflective Score, Median ([1]; Week 2, bedtime dosing): 5.13
AM TNSS Reflective Score, Min ([1]; Week 2, bedtime dosing): 2.21
PM TNSS Instantaneous Score, Max ([1]; Week 2, bedtime dosing): 7.21
PM TNSS Instantaneous Score, Mean ([1]; Week 2, bedtime dosing): 4.89
PM TNSS Instantaneous Score, Median ([1]; Week 2, bedtime dosing): 5.32
PM TNSS Instantaneous Score, Min ([1]; Week 2, bedtime dosing): 2.15
24 hour efficacy (allergic rhinitis; 10 mg once a day): lack of 24 hour efficacy
patients with significant sedation (allergic rhinitis; loratadine 40 mg once daily): 34.3%
nocturnal symptoms ([2]; 10 mg QD for four weeks): did not show any improvement
symptom scores ([2]; 10 mg QD, first two week period and four week study overall): statistically significant reduction

CN(C)CCC(c1ccc(Cl)cc1)c1ccccn1 (stereo not drawn) [chlorpheniramine, Chlorpheniramine maleate]
patients reporting moderate or complete relief [3]: 60%
patients reporting sedation [3]: 19%
